From PubChem BioAssay AID1919016 (Molecular Pharmacology Branch, DTP, NCI, 2023)

Test system: NCI-H196 complex spheroid growth, percent test/control
Test: Anticancer human tumor NCI-H196 cell line growth inhibition [AhR];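 note: seven days of drug exposure starting three days after plating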;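 for viability, T/C: 100% = DMSO vehicle control wells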
Details: for IC50: curve of first compound; for viability, T/C: stronger effect = lower value
Source text: Multicellular complex tumor spheroid response to aryl hydrocarbon receptor antagonists in combination with a variety of drugs and investigational agents in selected tumor cell lines
The current study was undertaken to assess response to aryl hydrocarbon receptor antagonists in combination with standard-of-care drugs and investigational agents in solid tumor complex spheroid models. Complex spheroids include a stromal component modeled by human endothelial cells (HUVEC) and fibroblasts modeled by human mesenchymal stem cells (MSCs). The concentration ranges selected for each drug and investigational agent were based upon clinically achievable concentrations if the clinical Cmax of the agent was known.
Compounds. The drugs and investigational agents: BAY 2416964 (NSC825713), GNF351 (NSC835774), CH-223191 (NSC835775), CPI-455 (NSC825282), aza-TdCyd (NSC777586), decitabine (NSC127716), belinostat (NSC758774), entinostat (NSC756642), pevonedistat (NSC761192), tazemetostat (NSC777109), talazoparib (NSC765396), olaparib (NSC753686), selinexor (NSC780203), nedisertib (M3814, NSC802822), bortezomib (NSC756655), venetoclax (NSC766270), doxorubicin (NSC123127), elimusertib (BAY189344, NSC800525), ceralasertib (AZD6738, NSC777638), TAK-243 (NSC785004), alisertib (NSC759677), etoposide (NSC141540), topotecan (NSC609699), eribulin (NSC707389), gemcitabine (NSC613327), carboplatin (NSC241240), cisplatin (NSC119875), and SN-38 (NSC673596) were obtained from the National Cancer Institute (NCI) Developmental Therapeutics Program Chemical Repository (32). The FDA-approved anticancer drug set is available from the Developmental Therapeutics Program at https://dtp.cancer.gov/organization/dscb/obtaining/available plates.htm. […] The stock solutions were prepared in dimethyl sulfoxide (DMSO, Sigma-Aldrich, St. Louis, MO, cat. D2650), except for the platinum compounds which were prepared in saline (Quality Biological, Gaithersburg, MD, cat. 114-055-101), at 800-fold the tested concentration and stored at -70 degrees C prior to their use. All drugs and investigational agents were tested over a range starting from a high concentration at or near the clinical Cmax and decreasing in half-log increments. If the clinical Cmax for an agent had not been determined, the highest concentration tested was 10 microM (Table 1).
Cell Culture. All cells were maintained in an incubator at 37 degrees C and 5% CO2 with 95% humidity. The PDC lines were cultured according to standard operating procedures established by the NCI PDMR (https://pdmr.cancer.gov). Briefly, all PDCs were thawed and cultured in Matrigel-coated flasks prepared with a working solution of 1X Ham's F-12 nutrient mix, without supplementation (Invitrogen, Waltham, MA, cat. 11765054), 100 U/mL penicillin-streptomycin (Invitrogen, cat. 15140122), and 2.5% Matrigel (Corning Inc., Corning, NY, cat. 354248) for the first three passages. All PDCs were cultured in complete DMEM/F-12 media containing advanced DMEM/F-12 (Invitrogen, cat. 12634028), 4.9% defined fetal bovine serum, heat inactivated (HyClone Laboratories Inc., Logan, UT, cat. SH30070.03HI), 389 ng/mL hydrocortisone (Sigma-Aldrich, cat. H4001), 9.7 ng/mL human EGF recombinant protein (Invitrogen, cat. PHG0313), 23.4 microg/mL adenine (Sigma-Aldrich, cat. A2786), 97.3 U/mL penicillin-streptomycin (Invitrogen, cat. 15140122), 1.9 mM L-glutamine (Invitrogen, cat. 25030081), and 9.7 microM Y-27632 dihydrochloride (Tocris Bioscience, Bristol, United Kingdom, cat. 1254). The PDCs were cultured in complete DMEM/F12 media without 10 microM Y-27632 dihydrochloride for at least two passages prior to the screen. The established cell lines NCI-H1341 and […] were cultured in DMEM/F-12, HEPES (Invitrogen, cat. 11330032), 5% defined fetal bovine serum (HyClone Laboratories Inc., cat. SH30070.03), ITS premix universal culture supplement [insulin (5 microg/mL), transferrin (5 microg/mL), and selenious acid (5 ng/mL)] […]

[1] = second compound 0.1 µM, first compound 0.0316 µM
[2] = second compound 0.1 µM, first compound 0.1 µM
[3] = second compound 0.316 µM, first compound 0.0316 µM
[4] = second compound 0.316 µM, first compound 0.1 µM
[5] = second compound 1 µM, first compound 0.0316 µM
[6] = second compound 1 µM, first compound 0.1 µM
[7] = second compound 3.16 µM, first compound 0.0316 µM
[8] = second compound 3.16 µM, first compound 0.1 µM
[9] = second compound 10 µM, first compound 0.0316 µM
[10] = second compound 10 µM, first compound 0.1 µM

Question: Which IC50 (second compound 0.1 µM) does the source give for `CC[C@@]1(O)C(=O)OCc2c1cc1n(c2=O)Cc2cc3c(CN(C)C)c(O)ccc3nc2-1` + CC(CO)NC(=O)c1cc(-c2ccc(Cl)cc2)nn(-c2cnn(C)c2)c1=O here?
Answer: > 0.1 µM

Question: What about the IC50 (second compound 0.316 µM) of the same compound?
Answer: > 0.1 µM

Question: What about the IC50 (second compound 1 µM) of the same compound?
Answer: > 0.1 µM

Question: And the IC50 (second compound 3.16 µM)?
Answer: > 0.1 µM

Question: What about the IC50 (second compound 10 µM) of the same compound?
Answer: > 0.1 µM

Question: What about the viability, T/C (second compound 0.1 µM, first compound 0.000316 µM) of the same compound?
Answer: 104%

Question: What about the viability, T/C (second compound 0.1 µM, first compound 0.001 µM) of the same compound?
Answer: 101%

Question: And the viability, T/C (second compound 0.1 µM, first compound 0.00316 µM)?
Answer: 97.8%

Question: And the viability, T/C (second compound 0.1 µM, first compound 0.01 µM)?
Answer: 97%

Question: What about the viability, T/C [1] of the same compound?
Answer: 111%

Question: And the viability, T/C [2]?
Answer: 119%

Question: What about the viability, T/C (second compound 0.316 µM, first compound 0.000316 µM) of the same compound?
Answer: 111%

Question: What about the viability, T/C (second compound 0.316 µM, first compound 0.001 µM) of the same compound?
Answer: 110%

Question: And the viability, T/C (second compound 0.316 µM, first compound 0.00316 µM)?
Answer: 105%

Question: What about the viability, T/C (second compound 0.316 µM, first compound 0.01 µM) of the same compound?
Answer: 105%

Question: And the viability, T/C [3]?
Answer: 111%

Question: And the viability, T/C [4]?
Answer: 129%

Question: And the viability, T/C (second compound 1 µM, first compound 0.000316 µM)?
Answer: 98.6%

Question: What about the viability, T/C (second compound 1 µM, first compound 0.001 µM) of the same compound?
Answer: 108%

Question: And the viability, T/C (second compound 1 µM, first compound 0.00316 µM)?
Answer: 116%

Question: And the viability, T/C (second compound 1 µM, first compound 0.01 µM)?
Answer: 100%

Question: What about the viability, T/C [5] of the same compound?
Answer: 113%

Question: What about the viability, T/C [6] of the same compound?
Answer: 119%

Question: What about the viability, T/C (second compound 3.16 µM, first compound 0.000316 µM) of the same compound?
Answer: 110%

Question: What about the viability, T/C (second compound 3.16 µM, first compound 0.001 µM) of the same compound?
Answer: 111%

Question: What about the viability, T/C (second compound 3.16 µM, first compound 0.00316 µM) of the same compound?
Answer: 114%

Question: And the viability, T/C (second compound 3.16 µM, first compound 0.01 µM)?
Answer: 96.8%

Question: And the viability, T/C [7]?
Answer: 120%

Question: What about the viability, T/C [8] of the same compound?
Answer: 118%

Question: And the viability, T/C (second compound 10 µM, first compound 0.000316 µM)?
Answer: 111%

Question: What about the viability, T/C (second compound 10 µM, first compound 0.001 µM) of the same compound?
Answer: 112%

Question: And the viability, T/C (second compound 10 µM, first compound 0.00316 µM)?
Answer: 116%

Question: And the viability, T/C (second compound 10 µM, first compound 0.01 µM)?
Answer: 103%

Question: And the viability, T/C [9]?
Answer: 113%

Question: And the viability, T/C [10]?
Answer: 124%

Question: What does the source list for `Nc1ccn(C2OC(CO)C(O)C2(F)F)c(=O)n1` (stereo not given) + CC(CO)NC(=O)c1cc(-c2ccc(Cl)cc2)nn(-c2cnn(C)c2)c1=O?
Answer: IC50 (second compound 0.1 µM): > 10 µM; IC50 (second compound 0.316 µM): > 10 µM; IC50 (second compound 1 µM): > 10 µM; IC50 (second compound 3.16 µM): > 10 µM; IC50 (second compound 10 µM): > 10 µM; viability, T/C [1]: 94%; viability, T/C [2]: 93.3%; viability, T/C (second compound 0.1 µM, first compound 0.316 µM): 67.5%; viability, T/C (second compound 0.1 µM, first compound 1 µM): 60.2%; viability, T/C (second compound 0.1 µM, first compound 3.16 µM): 65.2%; viability, T/C (second compound 0.1 µM, first compound 10 µM): 63.1%; viability, T/C [3]: 101%; viability, T/C [4]: 98%; viability, T/C (second compound 0.316 µM, first compound 0.316 µM): 67.9%; viability, T/C (second compound 0.316 µM, first compound 1 µM): 65.1%; viability, T/C (second compound 0.316 µM, first compound 3.16 µM): 62%; viability, T/C (second compound 0.316 µM, first compound 10 µM): 63.7%; viability, T/C [5]: 92.9%; viability, T/C [6]: 86.6%; viability, T/C (second compound 1 µM, first compound 0.316 µM): 75.1%; viability, T/C (second compound 1 µM, first compound 1 µM): 60.7%; viability, T/C (second compound 1 µM, first compound 3.16 µM): 61.1%; viability, T/C (second compound 1 µM, first compound 10 µM): 69.8%; viability, T/C [7]: 98.3%; viability, T/C [8]: 96.4%; viability, T/C (second compound 3.16 µM, first compound 0.316 µM): 69.9%; viability, T/C (second compound 3.16 µM, first compound 1 µM): 61.3%; viability, T/C (second compound 3.16 µM, first compound 3.16 µM): 59.7%; viability, T/C (second compound 3.16 µM, first compound 10 µM): 70.3%; viability, T/C [9]: 105%; viability, T/C [10]: 101%; viability, T/C (second compound 10 µM, first compound 0.316 µM): 78%; viability, T/C (second compound 10 µM, first compound 1 µM): 73.1%; viability, T/C (second compound 10 µM, first compound 3.16 µM): 66.8%; viability, T/C (second compound 10 µM, first compound 10 µM): 73.2%
